Experiments:
[1] = mouse, in vivo
Description: We subsequently analyzed the single and combined effects of Abcb1 and Abcg2 deficiencies on EAI045 plasma pharmacokinetics and tissue accumulation using male WT, Abcg2^-/-, Abcb1a/1b^-/-, and Abcb1a/1b;Abcg2^-/- mice. As we wanted to assess tissue concentrations while plasma concentrations were still relatively high; we terminated this experiment at 30 min.
(§1) Mice (Mus musculus) were bred in the Netherlands Cancer Institute and housed and handled according to institutional guidelines complying with Dutch and EU legislation. Animals used were WT, Abcb1a/1b^-/- [39], Abcg2^-/- [40], Abcb1a/1b;Abcg2^-/- [41], Cyp3a^-/- [42], and Oatp1a/1b^-/- [43] mice of a >99% FVB/N strain background. Homozygous CYP3A4 humanized transgenic mice (Cyp3aXAV) were generated by cross-breeding of transgenic mice with stable human CYP3A4 expression in the liver or intestine, respectively, in a Cyp3a^-/- background. Proper functionality of the knockout and transgenic strains was monitored by regular testing with a variety of drug substrates. All the mice used were between 10 and 15 weeks of age. Animals were kept in a temperature-controlled environment with a 12 h light/12 h dark cycle and received a standard diet (Transbreed, SDS Diets, Technilab-BMI, The Netherlands) and acidified water ad libitum. Depending on the type of experiment, 5 or 6 mice were tested in each experimental group. All experimental animal protocols, including power calculations, were ethically assessed and designed under the nationally approved DEC/CCD project AVD301002016595 (approval date, 10 August 2016) and evaluated and approved by the institutional animal care and use committee (IACUC) of the Netherlands Cancer Institute.
(§2) EAI045 was dissolved in dimethyl sulfoxide (DMSO) at a concentration of […], and then diluted with a mixture of polysorbate 80/ethanol (1:1, v/v), and further diluted with 5% (w/v) glucose in water to yield a concentration of 2 mg/mL. Final concentrations for DMSO, polysorbate 80, ethanol, and glucose in the dosing solution were 5%, 2.5%, 2.5%, and 4.5% (v/v/v/w), respectively. Elacridar hydrochloride was dissolved in DMSO at a concentration of 53 mg/mL, then diluted with a mixture of polysorbate 80, ethanol, and water [20:13:67, (v/v/v)] to yield a concentration of 5 mg/mL elacridar. The final oral dose of elacridar was 50 mg/kg body weight. All dosing solutions were prepared freshly on the day of experiment.
(§3) To minimize variation in absorption, mice were fasted for about 3 h before EAI045 was administered by gavage into the stomach (n = 5–6), using a blunt-ended needle. EAI045 was administered orally at dose of 20 mg/kg. Elacridar was administered orally at a dose of 50 mg/kg, 3 h prior to oral EAI045 administration. For the 24- or 4-h experiments, tail vein blood samplings were performed at 5 min, 30 min, 1, 2, 4, and 8 h, or 5 min, 15 min, 30 min, 1, and 2 h time points after oral administration of EAI045, respectively, using microvettes containing heparin. For the 30 min experiments, blood samplings were performed at 5, 10, and 20 min from the tail vein. At the last time point (24 h, 4 h, or 30 min), mice were anesthetized with isoflurane and blood was collected by cardiac puncture. Then, mice were sacrificed by cervical dislocation and brain, liver, spleen, kidneys, lung, small intestine with content (SIWC), and testis were rapidly removed and weighed. Tissues were homogenized on ice in appropriate volumes of 2% (w/v) BSA. Blood samples were centrifuged at 9000× g for 6 min at 4 °C immediately after collection. All samples were stored at −30 °C until analysis.

[2] = mouse, in vivo; remark: listed apart in the source
Text: as §1, §2, §3

[3] = set-up: method as in PMID 28288939, PMID 30253203, PMID 31175939, PMID 33459177, PMID 35400324; details: reported; cited from earlier work
[4] = after oral administration; no reference given; cited from earlier work
human OATP1A2 = system: human OATP1A2; set-up: method as in PMID 31770475; details: cited from earlier work
[5] = system: L858R/T790M EGFR mutant kinase; set-up: method as in PMID 27251290; details: cited from earlier work

## O=C(O)C(c1cc(F)ccc1O)N1Cc2ccccc2C1=O (stereo not shown) [PIA]
[1]
  PIA SIWC%, fold decrease: 1.8 fold
  PIA SIWC%-to-plasma ratio, fold decrease: 2.7 fold
  amount of PIA retrieved from SIWC, % of the EAI045 dose: ~ 0.3%
[1]; po
  PIA oral AUC0–30min among the strains: no meaningful differences
[1]; po, 20 mg/kg
  PIA/EAI045 AUC0–30min ratio: 270-480%
  PIA/EAI045 AUC ratio: about 400%
[1]; po, 20 mg/kg, 0.5 h
  PIA brain-to-plasma ratio: 0.014
[2]
  PIA brain-to-plasma ratio, fold increase: 3.3 fold
  PIA kidney-to-plasma ratio, fold increase: 4.2 fold
  PIA liver-to-plasma ratio, fold decrease: 1.5 fold

## CN(C)C/C=C/C(=O)Nc1cc2c(Nc3ccc(F)c(Cl)c3)ncnc2cc1O[C@H]1CCOC1 [afatinib]
[3]
  increase in brain penetration in Abcb1a/1b;Abcg2-/- compared to WT mice: 28 fold

## COc1cc(N2CCC(N3CCN(C)CC3)CC2)ccc1Nc1ncc(Cl)c(Nc2ccccc2P(C)(C)=O)n1 [brigatinib]
[3]
  increase in brain penetration in Abcb1a/1b;Abcg2-/- compared to WT mice: 38 fold

## COc1cc2c(cc1OC)CN(CCc1ccc(NC(=O)c3cccc4c(=O)c5cccc(OC)c5[nH]c34)cc1)CC2 [elacridar]
[4]
  time of peak plasma concentration: 3 to 4 h
Human OATP1A2
  inhibition of human OATP1A2: reported to inhibit

## C=CC(=O)Nc1cc(Nc2nccc(-c3cn(C)c4ccccc34)n2)c(OC)cc1N(C)CCN(C)C [osimertinib]
[3]
  increase in brain penetration in Abcb1a/1b;Abcg2-/- compared to WT mice: 6.4 fold

## EAI001 [reference compound]
[5]
  potency against individual L858R and T790M mutants: modest potency

From publication PMC9505538, “P-Glycoprotein (MDR1/ABCB1) Restricts Brain Accumulation of the Novel EGFR Inhibitor EAI045 and Oral Elacridar Coadministration Enhances Its Brain Accumulation and Oral Exposure” (Pharmaceuticals, 2022)
